Where a name gives a salt, the structure may show the parent alone.
Assay: Thermodynamic stability of crystalline form versus water activity
Format: physicochemical
Settings: ambient temperature; about 0.2 (20% RH)

Row | SMILES | water activity at which the form is thermodynamically stable
1 | COc1cc(C(=O)N2CCC3(CC2)CC(=O)c2c(cnn2C(C)C)C3)cc(-c2ccc(C(=O)O)cc2)n1 [Form 1 of Compound A, 4-(4-(1-isopropyl-7-oxo-1,4,6,7-tetrahydrospiro[indazole-5,4′-piperidine]-1′-carbonyl)-6-methoxypyridin-2-yl)benzoic acid anhydrous tris salt] | < 0.2
2 | COc1cc(C(=O)N2CCC3(CC2)CC(=O)c2c(cnn2C(C)C)C3)cc(-c2ccc(C(=O)O)cc2)n1 [Form 2 of Compound A] | > 0.2

Source: patent US12247022B2, “Combinations for treatment of NASH/NAFLD and related diseases” (Pfizer Inc., priority 2018, dated 2025)
